Data reported in article PMC10320002, “In vitro antiproliferative, anti-inflammatory effects and molecular docking studies of natural compounds isolated from Sarcocephalus pobeguinii (Hua ex Pobég)” (Frontiers in Pharmacology, 2023).
Where “and” joins values, the source holds several entries; their conditions need not be identical. Identical values can stand only once.

How the values were obtained:
A549 cells = experiment: MTT antiproliferation assay, A549; assay type: cell-based, human; conditions: for IC50: Homo sapiens, A549, 48 h, MTT; for SI values A549: IC50 of non-cancerous Vero cells divided by IC50 of A549
Procedure: (§1) Cancerous cell lines (MCF-7: human breast adenocarcinoma cells; HepG2: human hepatocellular carcinoma cells; Caco-2: human epithelial colorectal adenocarcinoma cells; A549: human epithelial lung adenocarcinoma cells), obtained from the American Type Culture Collection (ATCC) (Rockville, MD, United States of America), were cultured in Dulbecco’s Modified Eagle’s Medium (DMEM) high glucose (4.5 g/L) containing L-glutamine (4 mM) and sodium-pyruvate (Hyclone™) supplemented with 10% (v/v) fetal bovine serum (FBS) (Capricorn Scientific GmbH, South America), and incubated at 37°C with 5% CO2 in a humidified environment. African green monkey (Vero) kidney cells (also obtained from ATCC), a non-cancerous cell line, were grown in DMEM high glucose (4.5 g/L) containing L-glutamine (Lonza, Belgium) and supplemented with 5% FBS (Capricorn Scientific GmbH, South America) and 1% gentamicin (Virbac, RSA) in the same environment as cancer cells. The RAW 264.7 murine macrophage cells (obtained from ATCC) were cultured in DMEM high glucose (4.5 g/L) containing L-glutamine (Lonza, Belgium), supplemented with 10% FBS (Capricorn Scientific GmbH, South America) and 1% penicillin/streptomycin/fungizone (PSF) solution, and kept at 37°C in a 5% CO2 humidified environment.
(§2) The cancerous and non-cancerous cells were seeded at a density of 10^4 cells per well in 96-well microtiter plates, and they were incubated overnight at 37°C with 5% CO2 in a 5% CO2 humidified environment in order to allow the attachment of cells at the bottom of the plates. Then, the cells were exposed to increasing concentrations of compounds (100, 50, 25, 10 and 5 μg/mL) dissolved in dimethyl sulfoxide (DMSO) and further diluted in fresh culture medium. In this assay, the final concentration of DMSO in the culture medium was 0.5% used as negative control while doxorubicin hydrochloride (Pfizer, United States of America) was used as a positive control. The culture plates were incubated for 48 h at 37°C in a 5% CO2 humidified environment, after which the culture medium was discarded, and replaced by 200 µL of fresh culture medium with 30 µL of 3-(4,5-dimethylthiazol-2-yl)-2,5-diphenyl-2H-tetrazolium bromide (MTT) (5 mg/mL) dissolved in phosphate buffered saline ([Mosmann, 1983]). After 4 h of incubation, the medium was gently removed, and the formazan crystals were solubilized in 50 µL of DMSO. The absorbance was measured at 570 nm after shaking for 1 min on a microplate reader (Synergy Multi-Mode Reader, BioTek, Winooski, United States of America).
(§3) The cell viability rate was determined at each concentration of the compound as a percentage of cells treated with DMSO at 0.5% used as negative control. […] The selectivity index (Supporting Material) values were calculated for each compound by dividing the IC50 of non-cancerous cells by the IC50 of cancerous cells in the same units ([Mfotie Njoya et al., 2018]; [Mfotie Njoya et al., 2020]).

Vero cells = experiment: MTT antiproliferation assay, non-cancerous Vero cells; assay type: cell-based, African green monkey; conditions: for IC50: Chlorocebus sabaeus, Vero, 48 h, MTT
Procedure: as §1, §2, §3

[1] = test system: NO production in LPS-stimulated RAW 264.7 cells; experiment: Nitric oxide production inhibitory assay (Griess) in LPS-stimulated RAW 264.7 cells; assay type: cell-based, murine; conditions: for IC50: Mus musculus, RAW264.7, LPS (2 μg/mL), 24 h; for reduction of NO production: 100 μg/mL
Procedure: as §1
Nitric oxide (NO) production was evaluated in lipopolysaccharide (LPS)-stimulated RAW 264.7 cells by measuring the influence of tested compounds on the accumulation of nitrite, an indicator of NO in the cell supernatant, which can be detected with Griess reagent (Merck, Darmstadt, Germany). Briefly, the RAW 264.7 cells at their exponential growth phase were seeded at a density of 2×10^4 cells per well in 96 well-microtiter plates, and they were incubated overnight at 37°C in a 5% CO2 humidified environment to allow attachment. […] Then, culture medium containing LPS (2 μg/mL) was added to each well and further incubated for 24 h at 37°C in a 5% CO2 humidified environment. Thereafter, 100 μL of cell supernatant from each well were transferred into a new 96-well microtiter plate and an equal volume of Griess reagent was added according to protocol described by the manufacturer. The microtiter plate was incubated for 10 min in the dark at room temperature, and the absorbance of the mixture was measured at 550 nm on a microplate reader (Synergy Multi-Mode Reader, BioTek, Winooski, United States of America). The quantity of nitrite was determined from a sodium nitrite standard curve, and the percentage of NO production was calculated based on the ability of each tested sample to inhibit nitric oxide production by LPS-stimulated RAW 264.7 cells compared to the control (cells treated with LPS without samples which was considered as 100% NO production). Additionally, the cell viability of treated cells was determined by using the MTT assay as previously described ([Mosmann, 1983]).

MCF-7 cells = experiment: MTT antiproliferation assay, MCF-7; assay type: cell-based, human; conditions: for IC50: Homo sapiens, MCF7, 48 h, MTT; for SI values MCF7: IC50 of non-cancerous Vero cells divided by IC50 of MCF-7
Procedure: as §1, §2, §3

HepG2 cells = experiment: MTT antiproliferation assay, HepG2; assay type: cell-based, human; conditions: for IC50: Homo sapiens, HepG2, 48 h, MTT; for SI values HepG2: IC50 of non-cancerous Vero cells divided by IC50 of HepG2
Procedure: as §1, §2, §3

Caco-2 cells = experiment: MTT antiproliferation assay, Caco-2; assay type: cell-based, human; conditions: for IC50: Homo sapiens, Caco-2, 48 h, MTT; for SI values Caco-2: IC50 of non-cancerous Vero cells divided by IC50 of Caco-2
Procedure: as §1, §2, §3

RAW 264.7 cells = experiment: MTT cell viability of LPS-stimulated RAW 264.7 cells; assay type: cell-based, murine; conditions: 100 μg/mL
Procedure: as §1, with “The RAW 264.7 murine macrophage cells (obtained from ATCC) were cultured in DMEM high glucose (4.5 g/L) containing L-glutamine (Lonza, Belgium), supplemented with 10% FBS (Capricorn Scientific GmbH, South America) and 1% penicillin/streptomycin/fungizone (PSF) solution, and kept at 37°C in a 5% CO2 humidified environment.” left out
Nitric oxide (NO) production was evaluated in lipopolysaccharide (LPS)-stimulated RAW 264.7 cells by measuring the influence of tested compounds on the accumulation of nitrite, an indicator of NO in the cell supernatant, which can be detected with Griess reagent (Merck, Darmstadt, Germany). […] The microtiter plate was incubated for 10 min in the dark at room temperature, and the absorbance of the mixture was measured at 550 nm on a microplate reader (Synergy Multi-Mode Reader, BioTek, Winooski, United States of America). The quantity of nitrite was determined from a sodium nitrite standard curve, and the percentage of NO production was calculated based on the ability of each tested sample to inhibit nitric oxide production by LPS-stimulated RAW 264.7 cells compared to the control (cells treated with LPS without samples which was considered as 100% NO production). Additionally, the cell viability of treated cells was determined by using the MTT assay as previously described ([Mosmann, 1983]).

Row | SMILES | IC50 (A549 cells) | SI values A549 (A549 cells) | IC50 (Vero cells) | IC50 [1] | IC50 (MCF-7 cells) | SI values MCF7 (MCF-7 cells) | IC50 (HepG2 cells) | SI values HepG2 (HepG2 cells) | IC50 (Caco-2 cells) | SI values Caco-2 (Caco-2 cells) | cell viability of LPS-stimulated RAW 264.7 cells (RAW 264.7 cells) | reduction of NO production [1] | selectivity (SI) towards non-cancerous Vero cells (Vero cells; cancer cells except A549 cells) | selectivity (SI) for all cancer cells towards non-cancerous Vero cells (Vero cells; all cancer types (MCF-7, HepG2, Caco-2, A549))
1 | C[C@]12COCC=C1C[C@H]1c3[nH]c4ccccc4c3CCN1C2=O [Compound 10, latifoliamide C] | 143 µM and 44.2 µg/mL | 1.49 | 65.8 µg/mL and 213 µM | > 100 µg/mL and > 324 µM | 32.9 µg/mL and 107 µM | 2.01 | 54.5 µg/mL and 177 µM | 1.20 | 63.2 µg/mL and 205 µM | 1.04 | – | – | – | –
2 | CC1(C)CC[C@]2(C(=O)O)CC[C@]3(C)C(=CC[C@@H]4[C@@]5(C)CC[C@H](O)[C@@](C)(CO)[C@@H]5CC[C@]43C)[C@@H]2C1 [Compound 2, hederagenin] | 40.1 µM and 19 µg/mL | 2.40 | 45.5 µg/mL and 96.3 µM | 65.1 µg/mL and 138 µM | 8.92 µg/mL and 18.9 µM | 5.11 | 24.9 µg/mL and 52.6 µM | 1.83 | 36.7 µg/mL and 77.6 µM | 1.24 | significantly (p < 0.05) reduced the cell viability | at least 50% | – | –
3 | C[C@@H]1CC[C@]2(C(=O)O)CC[C@]3(C(=O)O)C(=CCC4[C@@]5(C)CC[C@H](O[C@H]6O[C@H](C)[C@@H](O)[C@H](O)[C@H]6O)C(C)(C)C5CC[C@]43C)C2[C@H]1C (stereo partly drawn) [Compound 6, quinovic acid 3-O-[α-D-quinovopyranoside]] | 3.08 µM and 1.96 µg/mL | 3.17 | 6.21 µg/mL and 9.81 µM | 18.2 µg/mL and 28.7 µM | 5.96 µg/mL and 9.42 µM | 1.04 | 41.9 µg/mL and 66.3 µM | 0.14 | 7.41 µg/mL and 11.7 µM | 0.83 | significantly (p < 0.05) reduced the cell viability | at least 50% | ≤ 1 | –
4 | C[C@@H]1CC[C@]2(C(=O)O)CC[C@]3(C(=O)O)C(=CCC4[C@@]5(C)CC[C@H](O[C@@H]6O[C@H](C)[C@@H](O)[C@H](O)[C@H]6O)C(C)(C)C5CC[C@]43C)C2[C@H]1C (stereo partly drawn) [Compound 9, quinovic acid 3-O-[β-D-quinovopyranoside]] | 69.9 µM and 44.2 µg/mL | 1.06 | 47.1 µg/mL and 74.4 µM | 49 µg/mL and 77.4 µM | 51.5 µg/mL and 81.4 µM | 0.91 | 47.2 µg/mL and 74.6 µM | 0.99 | 53.7 µg/mL and 84.8 µM | 0.88 | significantly (p < 0.05) reduced the cell viability | at least 50% | – | ≤ 1
